Assays:
TGFβR1 = target: T1, TGFβR1 (Homo sapiens, UniProt P36897); assay: In vitro enzymatic activity inhibition test (TGFβR1), ADP-Glo Kinase Detection Kit; type: biochemical; conditions: calculated from percent inhibition at 1000 nM, 100 nM, 10 nM
T1 sequence (P36897 34-503): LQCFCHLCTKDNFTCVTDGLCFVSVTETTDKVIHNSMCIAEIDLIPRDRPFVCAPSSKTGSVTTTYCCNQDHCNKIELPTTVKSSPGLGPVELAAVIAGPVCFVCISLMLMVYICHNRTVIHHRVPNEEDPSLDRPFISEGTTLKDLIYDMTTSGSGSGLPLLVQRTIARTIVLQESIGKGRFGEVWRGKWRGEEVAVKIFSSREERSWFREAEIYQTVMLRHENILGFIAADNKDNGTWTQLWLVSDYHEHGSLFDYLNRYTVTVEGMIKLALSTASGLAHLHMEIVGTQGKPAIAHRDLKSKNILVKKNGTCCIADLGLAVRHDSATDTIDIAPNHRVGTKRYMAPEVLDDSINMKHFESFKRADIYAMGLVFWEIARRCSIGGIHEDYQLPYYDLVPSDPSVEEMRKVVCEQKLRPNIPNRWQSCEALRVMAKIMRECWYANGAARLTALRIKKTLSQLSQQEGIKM
Experimental: Test Example 1: In vitro enzymatic activity inhibition test (TGFβR1).
(§1) Experimental method: According to the instructions of ADP-Glo™ Kinase Detection Kit (Promega), the inhibitory effect of the compounds of the present invention on the enzymatic activity of TGFβR1 was determined, and the steps were as follows: TGFβR1 enzyme were pre-incubated with different concentrations of test compounds (1000 nM, 100 nM, 10 nM) at 30°C for 30 min, TGFβR1 peptide and adenosine triphosphate (ATP) were added to initiate the reaction. The incubation was performed at 30°C for 3 h, followed by an addition of ADP-Glo™ reagent and incubated at room temperature for 90 min, kinase detection reagent was then added. Chemiluminescence signal values were detected after incubation at room temperature for another 30 min.
(§2) When the percent inhibition rate was between 30% and 80%, the median inhibitory concentration (IC50) or range of the compound was calculated according to the following formula: IC50 = X × (1 - percent inhibition rate (%)) / percent inhibition rate (%), wherein X is the concentration of the compound at which the inhibition rate is between 30% and 80%.

TGFβR2 = TGFβR2 (Homo sapiens, UniProt P37173); assay: In vitro enzymatic activity inhibition test (TGFβR2), ADP-Glo Kinase Detection Kit; type: biochemical; conditions: MBP substrate, calculated from percent inhibition at 1000nM, 100nM, 10nM
Experimental: Test Example 2: In vitro enzymatic activity inhibition test (TGFβR2).
as §1, with “TGFβR2” for “TGFβR1”, “(1000nM, 100nM, 10nM)” for “(1000 nM, 100 nM, 10 nM)”, “myelin basic protein (MBP)” for “TGFβR1 peptide”, “The chemiluminescence” for “Chemiluminescence”
as §2, with “percent inhibition was between” for “percent inhibition rate was between”

[1] = tested on: TGFβ/Smads signaling pathway in HEK293-SBE cells; assay: In vitro cell activity inhibition test, Bright-Glo luciferase reporter in HEK293-SBE cells; type: cell-based; conditions: TGFβ 0.5 ng/ml, luciferase reporter gene method
Experimental: Test Example 3: In vitro cell activity inhibition test
Experimental method: According to the instructions of Bright-Glo™ luciferase detection kit (Promega), the inhibitory effect of the compounds of the present invention on TGFβ/Smads signaling pathway in HEK293-SBE cells was determined. The steps were as follows: HEK293-SBE cells (Bps bioscience) were added to a 96-well plate (10% FBS medium), 30,000/well, and cultured overnight at 37°C and 5% CO2. The medium was changed to 0.5% FBS medium, and the test compound diluted in 0.5% FBS medium was added. The highest final concentration of the test compound was 10 µM with 4-fold dilution, and a total of 8 concentration gradients. After 4-5 hours of incubation, 10 µl of TGFβ was added. The final concentration of TGFβ was 0.5 ng/ml. 10 µl of medium added in replace of TGFβ was the negative control. In the blank control, no test compound was added, and TGFβ was added. Bright Glo reagent was added to each well, and the chemiluminescence signal value was read on a microplate reader.
The percent inhibition rates of the test compound at different concentrations were plotted against the compound concentrations, the curve was fitted according to the four-parameter model, and the IC50 value was calculated by the following formula: y = Min + (Max - Min) / (1 + (x / IC50) ^ (-Hillslope)), wherein: y is percentage inhibition rate; Max and Min are the maximum and minimum values of the fitted curve, respectively; x is the logarithmic concentration of compound; and Hillslope is the slope of the curve.

TGFβR2, sequence (P37173 23-567): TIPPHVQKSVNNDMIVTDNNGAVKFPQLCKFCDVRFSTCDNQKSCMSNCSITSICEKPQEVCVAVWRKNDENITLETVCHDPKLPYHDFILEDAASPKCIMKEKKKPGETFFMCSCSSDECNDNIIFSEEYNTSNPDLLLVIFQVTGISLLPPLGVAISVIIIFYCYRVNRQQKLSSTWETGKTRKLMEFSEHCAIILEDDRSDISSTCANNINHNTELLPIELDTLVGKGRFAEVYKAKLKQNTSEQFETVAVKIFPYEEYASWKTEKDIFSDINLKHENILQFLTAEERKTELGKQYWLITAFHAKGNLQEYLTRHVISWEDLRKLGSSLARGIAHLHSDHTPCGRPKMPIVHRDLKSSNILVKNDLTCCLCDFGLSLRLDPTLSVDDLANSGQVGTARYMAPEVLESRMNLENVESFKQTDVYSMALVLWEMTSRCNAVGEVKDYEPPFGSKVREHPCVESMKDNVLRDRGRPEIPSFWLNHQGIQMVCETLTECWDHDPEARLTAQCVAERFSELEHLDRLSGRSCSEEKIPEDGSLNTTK

| IC50 (TGFβR1) [nM] | IC50 (TGFβR2) [nM] | Compound | IC50 [1] [nM] |
| --- | --- | --- | --- |
| 9.83 ± 4.79 | > 1000 | Cc1cccc(-n2nccc2-c2ccn3ncnc3c2)n1 [Example 2, 7-(1-(6-methylpyridin-2-yl)-1H-pyrazol-5-yl)-[1,2,4]triazolo[1,5-a]pyridine] |  |
| 43.8 ± 6.08 | > 1000 | Cc1cccc(-n2nccc2-c2ccn3nccc3c2)n1 [Example 3, 5-(1-(6-methylpyridin-2-yl)-1H-pyrazol-5-yl) pyrazolo[1,5-a]pyridine] | 29.1 ± 2.5 |
| 27.4 ± 4.89 |  | Cc1cc(CNc2cc(-c3ccc4ncsc4c3)n(-c3cccc(C)n3)n2)ccn1 [Example 9, 5-(benzo[d]thiazol-6-yl)-1-(6-methylpyridin-2-yl)-N-((2-methylpyridin-4-yl)methyl)-1H-pyrazol-3-amine] | 43.2 ± 2.54 |
